Assays:
Erk1/2 phosphorylation = assay: Erk1/2 Phosphorylation Assay (western blot), Panc-1; type: cell-based, human; details: at 10 μM, * = activation
Procedure, shortened: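 KRas G12D Panc-1 cells were treated 6 h at 37° C with compound at 10 μM or serial dilutions for IC50 (0.3% DMSO). In method 1, cells were serum-starved overnight (0.5% FBS) and then given 1.5 ng/ml EGF for 15 min. In method 2, cells stayed in 10% FBS without stimulation. Lysate phospho-Erk1/2 (Thr202/Tyr204) was read by western blot.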

Akt phosphorylation = assay: Akt Phosphorylation Assay (western blot), Panc-1; type: cell-based, human; details: at 10 μM, * = activation
Procedure, shortened: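 Panc-1 (KRas G12D) cells were treated with compound at 10 μM final (0.3% DMSO) for 6 h at 37 °C, or with serial dilutions for IC50. Cells were either serum-starved overnight in 0.5% FBS and then stimulated with 1.5 ng/ml EGF for 15 min, or kept in 10% FBS without stimulation. Akt Ser473 phosphorylation in lysates was read by western blot.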

IL6 = assay: IL-6 Quantification Assay (ELISA), LPS-stimulated RAW 264.7; type: cell-based; parameters: inhibition: dose or concentration left out as unconfirmed; details: Mus musculus, RAW264.7; read-out: IL-6: % inh.

SMILES	% inh of Erk1/2 phosphorylation in Panc-1 (Erk1/2 phosphorylation)	% inh of Akt phosphorylation in Panc-1 (Akt phosphorylation)	inhibition (IL6)
CO[C@H]1C[C@H](Nc2nc(-c3nccn3C)nn3cc(-c4cnccc4C)c(-c4ccccc4)c23)C1 [Compound 218, N-((1r,3r)-3-Methoxycyclobutyl)-2-(1-methyl-1H-imidazol-2-yl)-6-(4-methylpyridin-3-yl)-5-phenylpyrrolo[2,1-f][1,2,4]triazin-4-amine]	D* (85-100% activation)	D* (85-100% activation)	1 to 24%
Cc1c(-c2ccn(C)n2)cn2nc(-c3nccn3C)nc(Nc3cc(OCCNC(=O)CCCC[C@H]4SC[C@H]5NC(=O)N[C@H]54)ccn3)c12 [Compound 186, N-(2-((2-((5-Methyl-2-(1-methyl-1H-imidazol-2-yl)-6-(1-methyl-1H-pyrazol-3-yl)pyrrolo[2,1-f][1,2,4]triazin-4-yl)amino)pyridin-4-yl)oxy)ethyl)-5-((3aR,4R,6aS)-2-oxohexahydro-1H-thieno[3,4-d]imidazol-4-yl)pentanamide]	A* (1-25% activation)	A* (1-25% activation)	1 to 24%
COc1ccnc(Nc2nc(-c3nccn3C)nn3cc(-c4ccn(C)n4)c(C(=O)NC4CC4)c23)c1 [Compound 175, N-Cyclopropyl-4-((4-methoxypyridin-2-yl)amino)-2-(1-methyl-1H-imidazol-2-yl)-6-(1-methyl-1H-pyrazol-3-yl)pyrrolo[2,1-f][1,2,4]triazine-5-carboxamide]	D* (85-100% activation)	D* (85-100% activation)	75 to 100%
COc1ccnc(Nc2nc(-c3nccn3C)nn3cc(-c4c(F)cccc4OC)c(-c4ccccc4)c23)c1 [Compound 217, 6-(2-Fluoro-6-methoxyphenyl)-N-(4-methoxypyridin-2-yl)-2-(1-methyl-1H-imidazol-2-yl)-5-phenylpyrrolo[2,1-f][1,2,4]triazin-4-amine]	D* (85-100% activation)	D* (85-100% activation)	75 to 100%
CO[C@H]1C[C@@H](Nc2nc(-c3nccn3C)nn3cc(-c4cccnc4)c(-c4ccccc4)c23)C1 [Compound 191, N-((1s,3s)-3-Methoxycyclobutyl)-2-(1-methyl-1H-imidazol-2-yl)-5-phenyl-6-(pyridin-3-yl)pyrrolo[2,1-f][1,2,4]triazin-4-amine]	D* (85-100% activation)	D* (85-100% activation)	50 to 74%
Cc1cnc2c(c1)CCN2c1nc(-c2nccn2C)nn2cc(-c3ccn(C)n3)c(C)c12 [Compound 239, 5-Methyl-2-(1-methyl-1H-imidazol-2-yl)-6-(1-methyl-1H-pyrazol-3-yl)-4-(5-methyl-2,3-dihydro-1H-pyrrolo[2,3-b]pyridin-1-yl)pyrrolo[2,1-f][1,2,4]triazine]	C* (46-84% activation)	D* (85-100% activation)	50 to 74%
CCOc1ccc(Nc2nc(-c3nccn3C)nn3cc(-c4ccn(C)n4)c(C)c23)nc1 [Compound 229, N-(5-Ethoxypyridin-2-yl)-5-methyl-2-(1-methyl-1H-imidazol-2-yl)-6-(1-methyl-1H-pyrazol-3-yl)pyrrolo[2,1-f][1,2,4]triazin-4-amine]	A (1-25% inhibition)	D* (85-100% activation)	26 to 49%
Cn1ccnc1-c1nc(O)c2c(-c3ccccc3)c(-c3cccnc3)cn2n1 [Compound 189, 2-(1-Methyl-1H-imidazol-2-yl)-5-phenyl-6-(pyridin-3-yl)pyrrolo[2,1-f][1,2,4]triazin-4-ol]	A* (1-25% activation)	B (26-49% inhibition)	0%

— US12459951B2, “Compounds that interact with RAS superfamily proteins for treatment of cancers, inflammatory diseases, rasopathies, and fibrotic disease” (SHY Therapeutics, LLC, priority 2022, dated 2025)
